Laboratory results taken from patent publication US7531573B2 (priority 1994, dated 2009).
Read-outs that look alike come from different tables or passages of the source.

Columns and labels:
[1] = system: NIH 3T3 mouse fibroblast cells; assay: Mitogen-induced cell proliferation; type: cell-based; settings: for inhibition at 10 µM: NIH3T3, read-out: Mitogen-induced cell proliferation % Inhibition; for IC50: NIH3T3, read-out: Mitogen-induced cell proliferation IC50
Source text: Other cell lines, e.g., cancer cells, endothelial cells and fibroblasts, as well as many others, may be used in the cell proliferation assay. Selection of a particular cell line will depend in part on the desired application, and is well within the capabilities of an ordinarily skilled artisan.

[2] = target: Gardos channel of erythrocytes (Homo sapiens, UniProt O15554); assay: cell-based; settings: for inhibition at 10 µM: read-out: Gardos Channel % Inhibition
Chain of Gardos channel of erythrocytes (O15554 whole entry): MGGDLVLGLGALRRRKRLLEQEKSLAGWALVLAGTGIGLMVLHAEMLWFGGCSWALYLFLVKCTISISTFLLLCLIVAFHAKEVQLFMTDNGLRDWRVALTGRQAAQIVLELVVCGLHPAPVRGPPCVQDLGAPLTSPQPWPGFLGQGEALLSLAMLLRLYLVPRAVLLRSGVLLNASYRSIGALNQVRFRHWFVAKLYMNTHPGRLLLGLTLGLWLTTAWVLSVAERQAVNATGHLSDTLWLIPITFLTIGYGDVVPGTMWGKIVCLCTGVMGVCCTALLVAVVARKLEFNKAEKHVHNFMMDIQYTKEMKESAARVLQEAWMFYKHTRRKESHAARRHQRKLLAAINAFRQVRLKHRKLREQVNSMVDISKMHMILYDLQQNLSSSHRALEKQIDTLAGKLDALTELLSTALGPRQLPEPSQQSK

[3] = erythrocytes, read-out: Gardos Channel IC50

| IC50 [2] [µM] | Structure (SMILES) | inhibition at 10 µM [1] [%] | IC50 [1] [µM] | IC50 [2, 3] [µM] | inhibition at 10 µM [2] [%] |
| --- | --- | --- | --- | --- | --- |
|  | CCOC(=O)C(c1ccccc1)(c1ccccc1)N1CCCCC1 [Compound 87] | 96 | 2.2 | 0.068 | 99 |
|  | COC(=O)c1ccccc1C(c1ccccc1)c1ccccc1 [Compound 45] | 99 | 0.8 | 0.32 | 98 |
|  | CCOC(c1ccccc1)(c1ccccc1)c1ccccc1 [Compound 46] | 99 | 2.2 | 0.076 | 99.5 |
| 0.288 | OC(c1ccccc1)(c1ccc(Br)cc1)c1ccc(Br)cc1 [Compound 50] | 99 | 0.5 |  | 100 |
|  | Fc1ccccc1C(c1ccccc1)c1ccccc1 [Compound 27] | 99 | 3 | 0.449 | 100 |
|  | O=C(O)C(Cc1ccc2ccccc2c1)C(c1ccccc1)(c1ccccc1)c1ccccc1 (centres unmarked) [Compound 28] | 99 | 0.7 | 5.22 | 98 |
|  | COc1ccc(C(O)(c2ccccc2)c2ccccc2Cl)cc1 (centres unmarked) [Compound 81] | 53 |  | 0.187 | 100 |
|  | COC(c1ccccc1)(c1ccccc1)c1ccccc1 [Compound 51] | 37 |  | 0.551 | 100 |
|  | NOC(c1ccccc1)(c1ccccc1)c1ccccc1 [Compound 34] | 68 |  | 0.939 | 96.3 |
|  | N#CCC(c1ccccc1)(c1ccccc1)c1ccccc1 [Compound 19] | 80 | 5.8 | 1.13 | 97 |
| 0.302 | OCCC(c1ccccc1)(c1ccccc1)c1ccccc1 [Compound 22] | 85 | 6.8 |  | 82 |
|  | NC(=O)CC(c1ccccc1)(c1ccccc1)c1ccccc1 [Compound 18] | 76.1 | 10 | 0.431 | 98 |
|  | CCOC(=O)C(c1ccccc1)(c1ccccc1)c1ccccc1 [Compound 47] | 99 | 0.8 | 0.193 | 100 |
|  | Nc1ccc(C(O)(c2ccc(N)cc2)c2ccc(N)cc2)cc1 [Compound 54] | 99 | 0.2 |  | 17.4 |
| 0.725 | OC(c1ccccc1)(c1ccccc1)c1ccc(-c2ccccc2)cc1 [Compound 21] | 99 | 2.8 |  | 97.3 |
|  | N#CC(c1ccccc1)(c1ccccc1)c1ccc([N+](=O)[O-])cc1Cl [Compound 49] | 94 | 0.3 | 0.336 | 88 |
| 0.247 | COc1ccc(C(O)(c2ccccc2)c2ccc(OC)cc2)cc1 [Compound 58] | 99 |  |  | 99.6 |
|  | O=C1CC[C@@H](COC(c2ccccc2)(c2ccccc2)c2ccccc2)N1 [Compound 23] | 77 | 3.8 | 0.216 | 97.9 |
|  | NC(=O)CCC(c1ccccc1)(c1ccccc1)c1ccccc1 [Compound 78] | 72 |  | 0.22 | 95 |
|  | COC(=O)CC(c1ccccc1)(c1ccccc1)c1ccccc1 [Compound 53] | 74 |  | 0.101 | 98 |

| Structure (SMILES) | IC50 [2] [µM] | inhibition at 10 µM [1] [%] | IC50 [1] [µM] | IC50 [2, 3] [µM] | inhibition at 10 µM [2] [%] |
| --- | --- | --- | --- | --- | --- |
| C#C[Si](c1ccccc1)(c1ccccc1)c1ccccc1 [Compound 44] | 0.388 | 82 |  |  | 79.4 |
| OCCCC[Si](c1ccccc1)(c1ccccc1)c1ccccc1 [Compound 73] | 0.371 | 99 | 2.5 |  | 98.9 |
| c1ccc(C(c2ccccc2)c2ccncc2)cc1 [Compound 4] | 2.86 | 37.7 |  |  | 91 |
